According to patent US20080227131A1, “Signalling Assay and Cell Line” (GE HEALTHCARE UK LIMITED, priority 2005, published 2008):

Experiments:
[1] = test system: EGFP-MAPK14 fusion protein; experiment: EGFP-MAPK14 fusion protein translocation assay for activation of MAPK14 (N:C ratio) in stable SW1353 cells; assay type: cell-based, human
Description: During assay preparation and throughout the assay, background stress response was kept to a minimum; microplates, cells and solutions were maintained at 37° C., 5% CO2, and 95% relative humidity. All inhibitors and activators were added to cells in complete medium.
50 μl of the prepared test activator in complete medium and control compounds were added and incubated at 37° C., 5% CO2, and 95% relative humidity. For fixed cell assays, 150 μl 10% (v/v) formalin (4% formaldehyde) was added at room temperature for 20 min. Cells were washed twice with PBS and nuclei were stained with Hoechst (10 μM) in PBS prior to imaging.

[2] = test system: phospho-(Thr180/Tyr182)-p38(MAPK14); experiment: Anti-phospho-p38 immunofluorescence assay in SW1353 cells; assay type: cell-based, human; details: 30 min treatment, fixed; n=8; read-out: EC50, immunofluorescence assay (Alexa647-anti-phospho-p38 signal)
Description: The temporal and biological response of the EGFP-MAPK14 assay was validated through co-analysis with a recognised assay for p38 (MAPK14) activation—an immunofluorescence assay targeting phospho-(Thr180/Tyr182)-p38(MAPK14). […] Cells were then washed (1% goat serum, 0.1% Tween in PBS), permeabilized (0.5% Triton X in wash buffer) for 15 minutes at room temperature and washed again. 50 μl of rabbit anti-phospho-p38 antibody at 1:200 (Zymed Laboratories, San Francisco, USA) was added and incubated for 1 hr at room temperature prior to two washes and the addition of 50 μl of goat-anti rabbit Alexa647 antibody (Molecular Probes) at 1:200 and incubation for 1 hr at room temperature. After 2 washes, cells were imaged in PBS to detect Hoechst, EGFP-MAPK14 and Alexa647 on an IN Cell Analyzer 1000 instrument.

With IL-1β the EC80 ([1]; concentration used as activator in the inhibitor assay) was 12 pM, the “Translocation of EGFP-MAPK14 signal from cytoplasm to nucleus” value ([1]; fixed cell assay, 316 pM for 30 minutes (FIG. 19)) was “clear translocation” and the “Translocation of EGFP-MAPK14 signal from cytoplasm to nucleus” value ([1]; living cells, 12 pM) was “clear translocation”. The EC50 [2] was 7.82 pM.
For OC[C@@H](O)[C@@H](O)[C@H](O)[C@@H](O)CO [sorbitol], the “Duration of stimulation after initial exposure” value ([1]; live cells, 0.4 M) was “at least 90 minutes” and the “Nuclear accumulation of EGFP-MAPK14 fusion protein” value ([1]; live cells, 0.4 M for 15 mins) was “clearly demonstrate nuclear accumulation”.
With COc1ccc(C[C@H]2NC[C@H](O)[C@H]2OC(C)=O)cc1 [anisomycin] the “Nuclear accumulation of EGFP-MAPK14 fusion protein” value ([1]; live cells, 300 nM for 15 mins) was “clearly demonstrate significant nuclear accumulation”.
